“Also recorded” adds a separate entry of the source.
Assays:
[1] = Pharmacokinetics, plasma and brain concentration by UHPLC-TOF; format: in vivo, mice
Description: Compound 22 is an analog of Compound 7. […] Compound 22 pharmacokinetic properties was measured in three male CD1 mice at several timepoints. Compound 22 was dissolved in 10% DMSO, 10%, cremaphor, and 80% saline. The tested dose was 33.3 mg/kg body weight. Brain tissue was homogenized and protein precipitated with acetonitrile. […] As such, Compound 22 was selected for testing in an animal model of HD the R6/2 model. As described below, Compound 22 and its analogs were further tested for their effects on striatal cell viability and effects of mHTT levels.

[2] = tested on: R6/2 mice of Huntington's disease; assay: Rotarod latency in R6/2 mice; format: in vivo; conditions: for rotarod performance versus vehicle treated R6/2 mice: 33 mg/kg i.p. QD
Description: Methods - Total of 20 female and male R6/2 mice and 10 female and male wild-type littermate control mice (WT) were used in the study. The mice were genotyped and the R6/2 mice were divided into different treatment groups based on their litter and baseline body weight. The treatment with Vehicle or Compound 22(33 mg/kg; 5 ml/kg, i.p. QD) was started at 4 weeks of age after the baseline behavioral tests (FIG. 10). Body weights were measured at 3 weeks of age and twice a week until the end of the study.
The experimental groups were: • Group 1) 10 wild-type mice (mixed gender) treated with Vehicle (5 ml/kg, i.p., QD) starting at 4 weeks of age • Group 2) 10 R6/2 mice (mixed gender) treated with Vehicle (5 ml/kg, i.p., QD) starting at 4 weeks of age • Group 3) 10 R6/2 mice (mixed gender) treated with Compound 22 (33 mg/kg; 5 ml/kg, i.p. QD) starting at 4 weeks of age
44.3.7 - Compound Delivery and Dosing - Treatment with Compound 22 (33 mg/kg; 5 ml/kg, i.p. QD) or Vehicle was started at age week 4 and continued until the 12 weeks of age. The test articles were handled and stored and the dose formulations were prepared according to detailed instructions provided by the Sponsor.
44.3.9.1 - Rotarod - The Rotarod test was perfomed at 4 (pre-treatment baseline), 6, 8 and 10 weeks of age. Each testing day included a training trial of 5 min at 4 RPM on the Rotarod apparatus (AccuScan Instruments, Columbus, USA). 30 minutes later, the animals were tested for 3 consecutive accelerating trials of 6 min with the speed changing from 0 to 40 RPM over 360 seconds and with an inter-trial interval of at least 30 min. The latency to fall from the rod was recorded. Mice remaining on the rod for more than 360 s were removed and their time scored as 360 sec.
10 female R6/2 mice and 10 female wild-type littermate control mice (F1 generation) were bred by Charles River Laboratories, Sulzfeld, Germany by mating (F0 generation) WT males (C57BL/6J; systematically re-infused with pedigreed JAX mice, stock 000664) with ovarian transferred (OT) TG females (JAX, stock 006494). […]

NGFR = assay: Nanostring gene expression in STHdh 111/111 cells: NGFR; format: cell-based, mouse; conditions: treated STHdh 111/111 (Q111-10), 48 h; in comparison to untreated STHdh 111/111
Description: (§1) Gene expression of certain transcripts of interest were measured using Nanostring Technology. […] Some STHdh 7/7 and STHdh 111/111 cell samples were not heat shocked and some wells were treated with Compound 22 at the indicated concentration on for 48 hours (Table 12). Some STHdh 7/7 and STHdh 111/111 cell samples were heat shocked for 3 hours some wells were treated with Compound 22 at the indicated concentration on for 48 hours (Table 13). Cells are washed with PBS, trypsinised, and gathered in a 15 ml falcon tube. After a short spin down for 3 minutes at 300 g, the cell pellet was washed with PBS once, before it was frozen down in liquid nitrogen. RNA was extracted with a standard protocol. The nCounter® Mouse Neuropathology Panel (Nanostring, Seattle) was used for gene expression analysis according to the manufacturer’s protocols.

Slc32a1 = assay: Nanostring gene expression in STHdh 111/111 cells: Slc32a1; format: cell-based, mouse; conditions: treated STHdh 111/111 (Q111-10), 48 h; in comparison to untreated STHdh 111/111
Description: as §1

Cc1[nH]c2ccc(C(=O)NCCN(C(C)C)C(C)C)cc2c1C [Compound 22]
penetration of the blood brain area in vivo ([1]; male CD1 mice, 33.3 mg/kg body weight, 33.3 mg/kg): penetrates the blood brain area; also recorded: can penetrate the blood brain area in vivo
crossing of the blood brain barrier ([1]; mouse, in vivo): can cross the blood brain barrier
improvement of latency to fall in comparison to untreated model mice ([2]; R6/2 mice, 10 weeks of age): 94%
rotarod performance versus vehicle treated R6/2 mice ([2]; female R6/2 mice, 10 weeks of age, 33 mg/kg): significantly improved rotarod performance; also recorded: almost doubled the latency to fall
rotarod performance versus vehicle treated R6/2 mice ([2]; pooled genders or males): no significant differences
NGFR expression increased by (NGFR): 60%
Slc32a1 expression upregulated (Slc32a1): 12 fold
